Where two headings read alike, the source gives them in different places.
Assays:
[1] = Comparison of treatment methods for removing geosmin from water (Table 4, FIG. 6)
[2] = Comparison of treatment methods for removing MIB from water (Table 4, FIG. 6)
MS2 coliphage = assay type: cell-based; settings: for effect of peroxide addition on virus / MS2 coliphage disinfection: at the ozone and peroxide doses tested, media filtered or microfiltered water
poliovirus = assay type: cell-based
total coliform = assay type: cell-based, coliforms
[3] = Destruction of trace organic compounds in waste water: nonylphenol; parameters: dose or concentration left out as unconfirmed; settings: ozone dose of about, FIG. 20
Method: (§1) While ozone and ozone/peroxide methods are know to reduce the levels of various organic compounds commonly found in waste water, the efficacy of the present apparatus, systems, and methods for removing nonylphenol (NP), bisphenol-A (BPA), and triclosan (TCS) from waste water was also tested.

[4] = Destruction of trace organic compounds in waste water: triclosan; parameters: dose or concentration left out as unconfirmed; settings: FIG. 20
Method: as §1

[5] = Destruction of trace organic compounds in waste water: bisphenol-A; parameters: dose or concentration left out as unconfirmed; settings: FIG. 20
Method: as §1

[6] = Bench-scale ozone / AOP treatment of tertiary filtered effluent: Estradiol Equivalents (B-screen bioassay); settings: Ozone Only Mode, ozone dose of less than or equal to 5 mg/l, FIG. 27
[7] = Bench-scale ozone / AOP treatment of tertiary filtered effluent: Gemifibrozil; settings: Ozone Only Mode, ozone dose of less than or equal to 5 mg/l, FIG. 28
[8] = Bench-scale ozone / AOP treatment of tertiary filtered effluent: Ibuprofen; settings: Ozone Only Mode
[9] = Bench-scale ozone / AOP treatment of tertiary filtered effluent: Triclosan; settings: Ozone Only Mode, ozone dose of 5 mg/l, FIG. 30
[10] = Bench-scale ozone / AOP treatment of tertiary filtered effluent: Caffeine; settings: Ozone Only Mode, ozone dose of 5 mg/l, FIG. 31
[11] = Bench-scale ozone / AOP treatment of tertiary filtered effluent: Fluoxetine; settings: Ozone Only Mode, ozone dose of 5 mg/l, FIG. 32
[12] = Bench-scale ozone / AOP treatment of tertiary filtered effluent: Sulfamethoxazole; settings: Ozone Only Mode, ozone dose of 5 mg/l, FIG. 33
[13] = Bench-scale ozone / AOP treatment of tertiary filtered effluent: Trimethoprim; settings: Ozone Only Mode, ozone dose of 5 mg/l, FIG. 34
E. Coli = assay: Bench-scale ozone / AOP disinfection of tertiary filtered effluent: E. Coli; assay type: cell-based; settings: Ozone Only Mode, ozone dose of less than or equal to 5 mg/l

With `OO` [Hydrogen peroxide] the “Removal (%) Geosmin” value ([1]; feed rate 1 mg/L) was 50%, the “Removal (%) MIB” value ([2]; feed rate 1 mg/L) was 72% and the “effect of peroxide addition on virus / MS2 coliphage disinfection” value (MS2 coliphage; listed as Peroxide) was “did not impact disinfection efficacy”. For the same molecule, the “effect of peroxide addition on virus / MS2 coliphage disinfection” value (MS2 coliphage; listed as hydrogen peroxide) was “did not interfere” and the “effect of peroxide addition on virus / MS2 coliphage disinfection” value (MS2 coliphage; listed as peroxide) was “did not significantly affect disinfection”.

With `O=[O+][O-]` [Ozone] the reduction in geosmin [1] was about 40%, the “Removal (%) Geosmin” value ([1]; feed rate 2.5 mg/L) was 94% and the “Removal (%) MIB” value ([2]; feed rate 2.5 mg/L) was 77%. The “reduction in MIB” value ([2]; ozone 3 mg/L, FIG. 6) was about 40%, the “Log Reduction of MS2 as a function of ozone dose (equation 2)” value (MS2 coliphage) was 0.4045×Ozone Dose+0.1823 and the “contact time sufficient to achieve a 6.5-log disinfection of MS2 coliphage” value (MS2 coliphage) was “about 10 seconds”. For the same molecule, the “disinfection of MS2 coliphage achieved” value (MS2 coliphage) was 6.5 log, the “ozone dose required to achieve a 6.5-log disinfection of MS2 coliphage” value (MS2 coliphage) was “greater than 5 ppm” and the “ozone required to achieve a 6.5-log disinfection of MS2 coliphage, relative to media-filtered water” value (MS2 coliphage) was “slightly lower”. For the same molecule, the “Log Reduction of Poliovirus as a function of ozone dose (equation 1)” value (poliovirus) was 0.3427×Ozone Dose−0.3621, the “disinfection of poliovirus corresponding to the 6.5-log disinfection of MS2 coliphage” value (poliovirus) was 5 log and the “levels of coliforms after treatment” value (total coliform) was “non-detectable”. For the same molecule, the “ozone dose at which non-detectable levels of total coliform were achieved” value (total coliform) was 4.5 mg/L, the “total coliform after treatment” value (total coliform) was “less than 2.2 MPN/100 mL” and the “reduction of the levels of NP” value [3] was “substantially reduce”. For the same molecule, the “reduction of the levels of TCS” value [4] was “substantially reduce”, the “reduction of the levels of BPA” value [5] was “substantially reduce” and the “maximum removal of Estradiol Equivalents” value [6] was over 97%. The “maximum removal of Gemifibrozil” value [7] was over 99%, the “removal of Ibuprofen” value ([8]; ozone dose of 5 mg/l, FIG. 29) was about 77% and the “maximum removal of Ibuprofen” value ([8]; ozone dose of less than or equal to 10 mg/l) was over 98%. For the same molecule, the “maximum removal of Triclosan” value [9] was over 76%, the “maximum removal of Caffeine” value [10] was over 96% and the “maximum removal of Fluoxetine” value [11] was over 97%. For the same molecule, the “maximum removal of Sulfamethoxazole” value [12] was over 99.9%, the “maximum removal of Trimethoprim” value [13] was over 99% and the “log reduction of E. Coli” value (E. Coli) was “greater than 4 log”. For the same molecule, the “E. Coli after disinfection (below the detection limit)” value (E. Coli; untreated 12,000 organism/100 ml, FIG. 37) was under 1 organism/100 ml.
